The text below walks through data of patent US20180334540A1, “Polymeric Derivative Of Macrolide Immunosuppressant” (Nippon Kayaku Kabushiki Kaisha, priority 2015, published 2018).

For data set [1], the system named is DA rats. Put plainly: Test on single-dose toxicity in rats.
Excerpt: (§1) Female DA rats (Japan SLC, Inc.) were intravenously administered through the caudal vein with tacrolimus or Example 1, each once in the dosage indicated in Table 4 and Table 5, and an observation of general symptoms was made successively.
Data set [2] deals with DA rats. As to conditions: rat, in vivo, iv, 20 mg/kg.
Excerpt: as §1
A further data set relates to rats. The settings on record: cited from earlier work.
Data set [3] in a line: Blood concentration profile in rats. It is filed as in vivo. As to conditions: female, SD, whole blood, iv, tacrolimus in rat blood, 5 mg/kg once i.v. caudal vein, Examples: tacrolimus cut out from micelles. An excerpt: Blood Concentration Profile in Rats
The results for Examples 1 to 4 and tacrolimus are presented in FIG. 3, and the results for Examples 5 to 8 and tacrolimus are presented in FIG. 4.

On to `C=CC[C@@H]1/C=C(\C)C[C@H](C)C[C@H](OC)[C@H]2O[C@@](O)(C(=O)C(=O)N3CCCC[C@H]3C(=O)O[C@H](/C(C)=C/[C@@H]3CC[C@@H](O)[C@H](OC)C3)[C@H](C)[C@@H](O)CC1=O)[C@H](C)C[C@@H]2OC` [Tacrolimus, tacrolimus], for which the “cerebral cortex pathology of dead rats” value with DA rats [1] (FIG. 7) is “neuronal vacuolation was recognized”. In addition, the lethal dose result in the data set with DA rats [1] (single i.v. dose, female DA rats) is on record as “lower than 20 mg/kg”. The death entry with DA rats [1] (single i.v. dose, tacrolimus 20 and 30 mg/kg, Example 1 20-50 mg/kg in terms of tacrolimus) is recorded as “half the animals in each group died”. In addition, the “general symptoms immediately after administration” value with DA rats [2] is “a prone position, sedation, and a decrease in locomotor activity”. Further, the “symptoms caused by intravenous administration” value in the data set with rats is listed as “slight respiratory distress, a decrease in locomotor activity, a prone position, stereotyped behavior”. In addition, in data set [3], the AUC(0-inf) is 5400 ng·h/mL, the highest level (Cmax) was 2430 ng/mL, the MRT inf is 4.12 h and the Tmax was determined as 4.98 min. Besides, the half-life in data set [3] (read-out: T½ (converted)) is 451 min.
